Measured values as given in the NIST ThermoML archive (doi:10.1021/je200616t).

Experiment: xn = mol fraction of the nth substance listed
Details: 101 kPa, Liquid, MP522 conductivity instrument

CCCCCC[n+]1ccccc1.O=S(=O)([N-]S(=O)(=O)C(F)(F)F)C(F)(F)F [1-hexylpyridinium bis(trifluromethylsulfonyl)imide] + CC1COC(=O)O1
electrical conductivity [S/m]
Details	283.15 K	293.15 K	298.15 K	303.15 K	313.15 K
x1 = 0.0128	0.184	0.226	0.249	0.275	0.324
x1 = 0.0186	0.243	0.303	0.334	0.367	0.435
x1 = 0.0321	0.354	0.445	0.489	0.539	0.641
x1 = 0.0545	0.472	0.597	0.661	0.731	0.874
x1 = 0.0693	0.519	0.66	0.733	0.814	0.976
x1 = 0.1001	0.567	0.729	0.815	0.911	1.1
x1 = 0.1332	0.574	0.749	0.841	0.944	1.16
x1 = 0.1806	0.539	0.72	0.817	0.925	1.15
x1 = 0.2489	0.463	0.636	0.73	0.838	1.06
x1 = 0.334	0.366	0.522	0.609	0.708	0.918
x1 = 0.4547	0.256	0.384	0.458	0.542	0.725
x1 = 0.5693	0.19	0.294	0.358	0.43	0.589
x1 = 0.7043	0.136	0.218	0.27	0.332	0.47
x1 = 0.8506	0.0986	0.167	0.208	0.258	0.377
x1 = 0.9425	0.0826	0.141	0.179	0.223	0.332
x1 = 1	0.0737	0.129	0.163	0.205	0.306

CCCCCC[n+]1ccccc1.O=S(=O)([N-]S(=O)(=O)C(F)(F)F)C(F)(F)F [1-hexylpyridinium bis(trifluromethylsulfonyl)imide] + CC#N
electrical conductivity [S/m]
Details	283.15 K	293.15 K	298.15 K	303.15 K	313.15 K
x1 = 0.0432	2.75	3.05	3.2	3.35	3.65
x1 = 0.0703	2.91	3.28	3.46	3.65	4.01
x1 = 0.0883	2.83	3.22	3.42	3.61	4
x1 = 0.1355	2.37	2.77	2.98	3.19	3.61
x1 = 0.2056	1.64	2	2.19	2.39	2.81
x1 = 0.2534	1.27	1.59	1.77	2	2.38
x1 = 0.332	0.886	1.16	1.3	1.46	1.79
x1 = 0.4498	0.503	0.702	0.811	0.935	1.2
x1 = 0.5297	0.351	0.51	0.599	0.702	0.924
x1 = 0.6276	0.239	0.362	0.437	0.518	0.704
x1 = 0.8155	0.128	0.207	0.256	0.316	0.452
x1 = 0.9205	0.0936	0.157	0.197	0.245	0.358
x1 = 1	0.0737	0.128	0.163	0.205	0.306
